Experimental data from ChEMBL document CHEMBL3627608, “Crystal structures of human RIP2 kinase catalytic domain complexed with ATP-competitive inhibitors: Foundations for understanding inhibitor selectivity” (Bioorg Med Chem, 2015).

Legend:
[1] = target: Serine/threonine-protein kinase MRCK gamma (Homo sapiens) (UniProt Q6DT37); assay: Inhibition of DMPK2 (unknown origin) at 10 uM after 120 mins P33 radiolabeled kinase activity assay
[2] = target: Tyrosine-protein kinase Fgr (Homo sapiens) (UniProt P09769); assay: Inhibition of FGR (unknown origin) at 10 uM after 120 mins P33 radiolabeled kinase activity assay
Tyrosine-protein kinase Fgr (Homo sapiens), sequence (P09769 2-529 limits assumed): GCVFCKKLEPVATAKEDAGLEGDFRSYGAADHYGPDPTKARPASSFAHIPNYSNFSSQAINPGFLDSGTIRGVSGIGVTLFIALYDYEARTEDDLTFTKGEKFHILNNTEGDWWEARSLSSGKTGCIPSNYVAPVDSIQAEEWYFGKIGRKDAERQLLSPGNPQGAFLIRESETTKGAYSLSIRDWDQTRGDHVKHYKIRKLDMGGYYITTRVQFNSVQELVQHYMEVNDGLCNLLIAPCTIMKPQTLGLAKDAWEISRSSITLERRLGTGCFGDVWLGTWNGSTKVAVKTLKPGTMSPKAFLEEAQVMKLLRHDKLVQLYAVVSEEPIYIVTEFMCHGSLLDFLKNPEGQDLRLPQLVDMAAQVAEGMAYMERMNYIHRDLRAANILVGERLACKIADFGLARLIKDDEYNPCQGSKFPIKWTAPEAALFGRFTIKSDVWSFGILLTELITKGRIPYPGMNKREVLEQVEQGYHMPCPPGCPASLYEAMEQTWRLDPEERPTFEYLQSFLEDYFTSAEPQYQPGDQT

[3] = target: G protein-coupled receptor kinase 5 (Homo sapiens) (UniProt P34947); assay: Inhibition of GRK5 (unknown origin) at 10 uM after 120 mins P33 radiolabeled kinase activity assay
G protein-coupled receptor kinase 5 (Homo sapiens), sequence (P34947 whole entry, looked up): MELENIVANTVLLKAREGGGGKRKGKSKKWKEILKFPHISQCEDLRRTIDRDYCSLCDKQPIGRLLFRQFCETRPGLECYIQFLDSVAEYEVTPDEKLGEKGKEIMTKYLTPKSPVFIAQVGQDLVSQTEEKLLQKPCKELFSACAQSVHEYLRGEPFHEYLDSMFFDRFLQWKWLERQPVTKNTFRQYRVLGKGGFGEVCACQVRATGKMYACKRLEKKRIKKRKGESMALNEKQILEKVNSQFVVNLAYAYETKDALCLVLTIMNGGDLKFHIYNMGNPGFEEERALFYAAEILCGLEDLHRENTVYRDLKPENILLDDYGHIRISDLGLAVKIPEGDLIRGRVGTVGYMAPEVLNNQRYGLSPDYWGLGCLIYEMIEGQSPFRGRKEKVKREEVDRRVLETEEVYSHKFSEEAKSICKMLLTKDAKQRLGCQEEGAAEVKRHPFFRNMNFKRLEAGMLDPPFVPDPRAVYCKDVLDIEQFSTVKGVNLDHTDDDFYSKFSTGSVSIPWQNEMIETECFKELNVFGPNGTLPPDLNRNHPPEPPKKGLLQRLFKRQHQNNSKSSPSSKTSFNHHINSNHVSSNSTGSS

[4] = target: Protein kinase C eta type (Homo sapiens) (UniProt P24723); assay: Inhibition of PKCeta (unknown origin) at 10 uM after 120 mins P33 radiolabeled kinase activity assay
[5] = target: Serine/threonine-protein kinase N3 (Homo sapiens) (UniProt Q6P5Z2); assay: Inhibition of PKN3 (unknown origin) at 10 uM after 120 mins P33 radiolabeled kinase activity assay
Serine/threonine-protein kinase N3 (Homo sapiens), sequence (Q6P5Z2 whole entry, looked up): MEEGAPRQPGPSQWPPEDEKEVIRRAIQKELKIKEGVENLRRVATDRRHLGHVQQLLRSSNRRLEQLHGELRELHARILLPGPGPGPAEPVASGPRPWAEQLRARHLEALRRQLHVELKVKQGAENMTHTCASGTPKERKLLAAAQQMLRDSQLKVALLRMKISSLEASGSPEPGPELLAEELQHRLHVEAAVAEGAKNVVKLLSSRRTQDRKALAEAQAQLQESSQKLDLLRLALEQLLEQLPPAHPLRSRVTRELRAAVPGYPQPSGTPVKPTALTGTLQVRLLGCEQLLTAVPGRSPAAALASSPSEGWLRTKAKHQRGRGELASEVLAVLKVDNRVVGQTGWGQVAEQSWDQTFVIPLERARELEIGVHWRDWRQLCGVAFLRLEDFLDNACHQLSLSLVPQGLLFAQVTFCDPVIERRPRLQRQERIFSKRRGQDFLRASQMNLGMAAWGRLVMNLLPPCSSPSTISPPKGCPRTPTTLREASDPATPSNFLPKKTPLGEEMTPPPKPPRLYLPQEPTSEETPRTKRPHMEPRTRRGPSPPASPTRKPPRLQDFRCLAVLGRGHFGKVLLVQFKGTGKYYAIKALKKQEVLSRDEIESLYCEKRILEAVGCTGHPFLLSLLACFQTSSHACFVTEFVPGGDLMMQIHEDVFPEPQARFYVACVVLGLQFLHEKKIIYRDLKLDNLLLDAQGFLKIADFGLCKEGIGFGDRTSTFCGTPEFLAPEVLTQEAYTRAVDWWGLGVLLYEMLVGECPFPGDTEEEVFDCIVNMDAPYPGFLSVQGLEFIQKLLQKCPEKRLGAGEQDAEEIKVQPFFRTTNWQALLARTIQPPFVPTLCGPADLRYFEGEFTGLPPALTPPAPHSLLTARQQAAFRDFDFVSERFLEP

[6] = target: Serine/threonine-protein kinase PLK2 (Homo sapiens) (UniProt Q9NYY3); assay: Inhibition of PLK2 (unknown origin) at 10 uM after 120 mins P33 radiolabeled kinase activity assay
Serine/threonine-protein kinase PLK2 (Homo sapiens), sequence (Q9NYY3 whole entry, looked up): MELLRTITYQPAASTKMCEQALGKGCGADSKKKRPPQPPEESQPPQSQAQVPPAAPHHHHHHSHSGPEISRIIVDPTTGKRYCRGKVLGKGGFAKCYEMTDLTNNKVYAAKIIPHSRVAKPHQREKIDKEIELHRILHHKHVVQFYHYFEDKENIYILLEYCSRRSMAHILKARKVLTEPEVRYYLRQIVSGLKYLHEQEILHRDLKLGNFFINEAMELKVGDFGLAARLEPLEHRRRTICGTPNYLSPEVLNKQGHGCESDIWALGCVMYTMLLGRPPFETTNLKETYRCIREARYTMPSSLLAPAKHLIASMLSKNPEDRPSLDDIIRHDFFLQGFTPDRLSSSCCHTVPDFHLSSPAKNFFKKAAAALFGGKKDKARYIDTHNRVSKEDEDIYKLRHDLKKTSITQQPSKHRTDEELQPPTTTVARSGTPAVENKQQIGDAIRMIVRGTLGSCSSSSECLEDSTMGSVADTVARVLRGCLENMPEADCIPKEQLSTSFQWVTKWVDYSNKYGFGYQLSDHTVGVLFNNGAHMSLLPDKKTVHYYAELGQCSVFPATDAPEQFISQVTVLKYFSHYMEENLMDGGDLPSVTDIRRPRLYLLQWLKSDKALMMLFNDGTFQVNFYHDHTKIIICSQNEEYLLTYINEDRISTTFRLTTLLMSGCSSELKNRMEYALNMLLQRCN

[7] = target: MAP/microtubule affinity-regulating kinase 3 (Homo sapiens) (UniProt P27448); assay: Inhibition of MARK3 (unknown origin) at 10 uM after 120 mins P33 radiolabeled kinase activity assay
[8] = target: Maternal embryonic leucine zipper kinase (Homo sapiens) (UniProt Q14680); assay: Inhibition of MELK (unknown origin) at 10 uM after 120 mins P33 radiolabeled kinase activity assay
Maternal embryonic leucine zipper kinase (Homo sapiens), sequence (Q14680 whole entry, looked up): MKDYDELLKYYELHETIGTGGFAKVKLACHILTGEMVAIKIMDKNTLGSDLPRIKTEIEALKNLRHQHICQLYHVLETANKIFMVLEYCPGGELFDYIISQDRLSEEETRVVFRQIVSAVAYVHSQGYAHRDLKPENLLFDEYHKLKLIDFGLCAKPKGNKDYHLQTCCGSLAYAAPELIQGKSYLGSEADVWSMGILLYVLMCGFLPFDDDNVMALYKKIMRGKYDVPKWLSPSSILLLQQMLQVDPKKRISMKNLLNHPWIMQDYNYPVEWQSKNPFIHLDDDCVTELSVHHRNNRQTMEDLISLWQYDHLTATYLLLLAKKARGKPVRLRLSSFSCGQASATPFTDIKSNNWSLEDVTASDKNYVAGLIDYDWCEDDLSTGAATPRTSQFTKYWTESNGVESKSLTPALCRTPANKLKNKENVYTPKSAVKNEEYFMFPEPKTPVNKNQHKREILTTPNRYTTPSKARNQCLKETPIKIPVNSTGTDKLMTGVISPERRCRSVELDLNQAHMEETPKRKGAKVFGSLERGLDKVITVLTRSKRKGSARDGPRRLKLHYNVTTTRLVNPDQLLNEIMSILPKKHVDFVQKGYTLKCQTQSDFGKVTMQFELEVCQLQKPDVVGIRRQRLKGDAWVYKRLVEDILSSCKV

[9] = target: Mitogen-activated protein kinase kinase kinase 10 (Homo sapiens) (UniProt Q02779); assay: Inhibition of MLK2 (unknown origin) at 10 uM after 120 mins P33 radiolabeled kinase activity assay
[10] = target: T1, Serine/threonine-protein kinase 4 (Homo sapiens) (UniProt Q13043); assay: Inhibition of MST1 (unknown origin) at 10 uM after 120 mins P33 radiolabeled kinase activity assay
T1 sequence (whole entry): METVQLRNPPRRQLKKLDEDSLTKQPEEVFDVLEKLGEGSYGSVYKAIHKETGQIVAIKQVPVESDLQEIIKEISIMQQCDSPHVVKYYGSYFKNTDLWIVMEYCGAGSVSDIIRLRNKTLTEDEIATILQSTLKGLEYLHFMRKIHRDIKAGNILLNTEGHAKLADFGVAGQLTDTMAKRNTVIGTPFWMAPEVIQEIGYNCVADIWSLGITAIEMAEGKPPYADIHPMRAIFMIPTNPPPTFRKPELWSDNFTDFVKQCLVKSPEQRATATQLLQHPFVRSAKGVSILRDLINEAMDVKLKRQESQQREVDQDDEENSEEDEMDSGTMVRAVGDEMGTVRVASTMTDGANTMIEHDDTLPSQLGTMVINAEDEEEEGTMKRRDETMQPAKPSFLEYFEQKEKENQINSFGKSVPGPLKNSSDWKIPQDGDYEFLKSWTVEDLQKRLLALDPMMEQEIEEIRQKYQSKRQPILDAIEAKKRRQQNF

[11] = target: Ribosomal protein S6 kinase alpha-2 (Homo sapiens) (UniProt Q15349); assay: Inhibition of RSK3 (unknown origin) at 10 uM after 120 mins P33 radiolabeled kinase activity assay
[12] = target: STE20-like serine/threonine-protein kinase (Homo sapiens) (UniProt Q9H2G2); assay: Inhibition of SLK (unknown origin) at 10 uM after 120 mins P33 radiolabeled kinase activity assay
STE20-like serine/threonine-protein kinase (Homo sapiens), sequence (Q9H2G2 whole entry, looked up): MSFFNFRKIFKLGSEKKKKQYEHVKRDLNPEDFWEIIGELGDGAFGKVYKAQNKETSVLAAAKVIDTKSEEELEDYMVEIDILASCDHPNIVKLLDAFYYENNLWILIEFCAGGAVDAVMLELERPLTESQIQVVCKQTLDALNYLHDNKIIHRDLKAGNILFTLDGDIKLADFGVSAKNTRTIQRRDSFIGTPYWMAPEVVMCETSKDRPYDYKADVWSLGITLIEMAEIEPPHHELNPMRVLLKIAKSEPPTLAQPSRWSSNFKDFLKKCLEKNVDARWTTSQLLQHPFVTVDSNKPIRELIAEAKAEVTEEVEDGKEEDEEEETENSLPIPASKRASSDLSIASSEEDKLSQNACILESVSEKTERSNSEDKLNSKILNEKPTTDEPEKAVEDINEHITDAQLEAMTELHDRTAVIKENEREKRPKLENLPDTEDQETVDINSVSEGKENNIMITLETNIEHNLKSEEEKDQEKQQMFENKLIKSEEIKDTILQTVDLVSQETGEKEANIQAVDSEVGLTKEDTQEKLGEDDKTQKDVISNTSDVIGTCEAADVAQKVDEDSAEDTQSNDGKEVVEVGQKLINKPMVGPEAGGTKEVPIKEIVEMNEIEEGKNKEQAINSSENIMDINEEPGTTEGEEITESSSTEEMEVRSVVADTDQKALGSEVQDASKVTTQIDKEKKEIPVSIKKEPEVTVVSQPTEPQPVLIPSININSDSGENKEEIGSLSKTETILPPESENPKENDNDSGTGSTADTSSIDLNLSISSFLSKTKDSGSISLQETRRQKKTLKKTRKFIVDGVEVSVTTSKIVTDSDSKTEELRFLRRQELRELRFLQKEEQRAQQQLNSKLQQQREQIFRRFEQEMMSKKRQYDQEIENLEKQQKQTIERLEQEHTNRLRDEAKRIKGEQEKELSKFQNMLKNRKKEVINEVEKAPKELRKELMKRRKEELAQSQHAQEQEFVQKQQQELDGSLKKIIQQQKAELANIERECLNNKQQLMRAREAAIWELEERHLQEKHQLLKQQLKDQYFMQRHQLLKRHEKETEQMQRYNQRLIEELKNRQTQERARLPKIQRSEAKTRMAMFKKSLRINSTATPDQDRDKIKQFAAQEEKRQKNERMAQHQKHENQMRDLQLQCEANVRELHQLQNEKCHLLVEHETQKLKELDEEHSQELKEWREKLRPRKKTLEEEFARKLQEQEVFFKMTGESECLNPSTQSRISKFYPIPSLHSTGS

[13] = target: Tyrosine-protein kinase ABL2 (Homo sapiens) (UniProt P42684); assay: Inhibition of ABL2 (unknown origin) at 10 uM after 120 mins P33 radiolabeled kinase activity assay
[14] = target: T2, Serine/threonine-protein kinase VRK1 (Homo sapiens) (UniProt Q99986); assay: Inhibition of VRK1 (unknown origin) at 10 uM after 120 mins P33 radiolabeled kinase activity assay
T2 sequence (whole entry): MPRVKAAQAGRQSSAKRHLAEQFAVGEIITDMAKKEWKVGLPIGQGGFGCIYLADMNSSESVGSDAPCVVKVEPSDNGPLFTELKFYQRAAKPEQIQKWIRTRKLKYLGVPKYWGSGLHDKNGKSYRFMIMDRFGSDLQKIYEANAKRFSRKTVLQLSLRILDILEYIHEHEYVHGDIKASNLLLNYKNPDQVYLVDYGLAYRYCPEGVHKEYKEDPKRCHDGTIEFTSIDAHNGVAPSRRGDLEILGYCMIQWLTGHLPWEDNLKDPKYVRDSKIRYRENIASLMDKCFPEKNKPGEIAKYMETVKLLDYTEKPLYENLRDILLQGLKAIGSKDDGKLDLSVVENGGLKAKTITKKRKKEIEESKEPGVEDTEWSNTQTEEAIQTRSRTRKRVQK

[15] = target: Activin receptor type-1-like (Homo sapiens) (UniProt P37023); assay: Inhibition of ALK1 (unknown origin) at 10 uM after 120 mins P33 radiolabeled kinase activity assay
[16] = target: Calcium/calmodulin-dependent protein kinase type II subunit gamma (Homo sapiens) (UniProt Q13555); assay: Inhibition of CAMK2gamma (unknown origin) at 10 uM after 120 mins P33 radiolabeled kinase activity assay
[17] = target: CDK6/cyclin D1 (Homo sapiens) (UniProt P24385+Q00534); assay: Inhibition of CDK6/cyclin D1 (unknown origin) at 10 uM after 120 mins P33 radiolabeled kinase activity assay; assay type: protein-complex assay
[18] = target: Dual specificity protein kinase CLK3 (Homo sapiens) (UniProt P49761); assay: Inhibition of CLK3 (unknown origin) at 10 uM after 120 mins P33 radiolabeled kinase activity assay
Dual specificity protein kinase CLK3 (Homo sapiens), sequence (P49761 whole entry, looked up): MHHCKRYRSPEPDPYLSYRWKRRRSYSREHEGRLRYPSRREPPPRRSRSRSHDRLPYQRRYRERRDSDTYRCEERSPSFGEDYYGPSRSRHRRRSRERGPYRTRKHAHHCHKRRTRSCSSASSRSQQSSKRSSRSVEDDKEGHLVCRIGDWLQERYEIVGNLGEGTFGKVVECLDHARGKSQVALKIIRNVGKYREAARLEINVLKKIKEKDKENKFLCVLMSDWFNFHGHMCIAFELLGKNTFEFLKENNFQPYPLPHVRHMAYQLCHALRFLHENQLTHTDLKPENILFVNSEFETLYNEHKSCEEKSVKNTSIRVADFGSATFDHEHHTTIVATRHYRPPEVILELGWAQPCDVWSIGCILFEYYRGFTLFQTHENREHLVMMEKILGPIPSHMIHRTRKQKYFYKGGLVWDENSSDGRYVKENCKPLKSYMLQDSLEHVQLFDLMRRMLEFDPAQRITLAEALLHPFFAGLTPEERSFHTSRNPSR

[19] = target: Death-associated protein kinase 2 (Homo sapiens) (UniProt Q9UIK4); assay: Inhibition of DAPK2 (unknown origin) at 10 uM after 120 mins P33 radiolabeled kinase activity assay

Compound	inhibition [1]	inhibition [2]	inhibition [3]	inhibition [4]	inhibition [5]	inhibition [6]	inhibition [7]	inhibition [8]	inhibition [9]	inhibition [10]	inhibition [11]	inhibition [12]	inhibition [13]	inhibition [14]	inhibition [15]	inhibition [16]	inhibition [17]	inhibition [18]	inhibition [19]
COCCNC(=O)c1ccc2c(c1)nc(-c1cnc(-c3ccc(Cl)cc3)[nH]1)n2CCOC	-3.48%	67.5%	-6.1%	0.75%	17.9%	1.52%	-3.77%	8.47%	8.79%	9.73%	11.2%	31.2%	59.3%	3.79%	28.2%	9.22%	3.54%	5.68%	6.92%
CS(=O)(=O)c1cccc(Nc2nccc(-c3sc(N4CCOCC4)nc3-c3cccc(NS(=O)(=O)c4c(F)cccc4F)c3)n2)c1	-3.32%	100%	-3.67%	-5.94%	28.3%	7.04%	4.8%	69.3%	102%	16%	67.5%	86%	99.8%	15.4%	96.2%	7.84%	26.4%	36.7%	1.67%
CC(C)(C)c1cc(NC(=O)Nc2ccc(Oc3ccncc3)cc2)no1	-1.44%	90.7%	-7.31%	-2.64%	31.5%	2.47%	-1.36%	-0.03%	39.5%	11.5%	53.4%	73%	90.1%	14%	3.54%	3.21%	17.4%	9.12%	3.58%
